Literature values in patent US20250275917A1, “TOPICAL FOAMABLE PHARMACEUTICAL COMPOSITION” (EUROFARMA LABORATORIOS S.A., priority 2021, published 2025).

Settings: systemic absorption

## Nc1cc(N2CCCCC2)nc(N)[n+]1[O-] [Minoxidil]
  concentration associated with adverse effects: 20 ng/mL
